According to the NIST ThermoML archive (doi:10.1021/je100522z):
Where “and” joins values, the source holds several entries; their conditions need not be identical. Equal values may be shown once. Numbers after ± are expanded uncertainties.

Experiments:
[1] = molar heat capacity at constant pressure; conditions: 101.33 kPa, Liquid, Small sample (50 mg) DSC
[2] = 101.33 kPa, Liquid
[3] = excess molar enthalpy (molar enthalpy of mixing); xn = mol fraction of the nth substance listed; conditions: 101.3 kPa, Liquid, Calvet calorimetry

CCCC[P+](CC)(CCCC)CCCC.CCOP(=O)([O-])OCC [tributylethylphosphonium diethylphosphate]
Conditions | mass density, [2] [kg/m3] | molar heat capacity at constant pressure, [1] [J/K/mol]
283.15 K | – | 683 ± 55
293.15 K | 1010.74 ± 0.48 | 706 ± 57
298.15 K | 1007.43 ± 0.47 | –
303.15 K | 1004.1 ± 0.5 | 716 ± 58
313.15 K | 997.42 ± 0.45 | 728 ± 59
323.15 K | 990.87 ± 0.47 | 739 ± 60
333.15 K | 984.33 ± 0.49 | 753 ± 61
343.15 K | 977.79 ± 0.51 | 768 ± 62

CCCCCCn1cc[n+](C)c1.O=S(=O)([O-])C(F)(F)F [1-hexyl-3-methylimidazolium trifluoromethanesulfonate]
[1]
Conditions | molar heat capacity at constant pressure [J/K/mol]
283.15 K | 484 ± 39
293.15 K | 493 ± 40
303.15 K | 500 ± 41
313.15 K | 506 ± 41
323.15 K | 513 ± 42
333.15 K | 516 ± 42
343.15 K | 522 ± 42

CCOP(=O)([O-])OCC.CCn1cc[n+](C)c1 [1-ethyl-3-methylimidazolium diethyl phosphate] + O
[3]
Conditions | excess molar enthalpy [kcal/mol]
313.13 K, x2 = 0.2497 | -0.813 ± 0.0335
313.13 K, x2 = 0.2506 | -0.815 ± 0.0335
313.13 K, x2 = 0.5025 | -1.34 ± 0.055
313.13 K, x2 = 0.5036 | -1.34 ± 0.055
313.13 K, x2 = 0.7514 | -1.25 ± 0.0502
313.13 K, x2 = 0.7538 | -1.25 ± 0.0502
333.13 K, x2 = 0.2456 | -0.786 ± 0.0311
333.13 K, x2 = 0.2473 | -0.786 ± 0.0311
333.13 K, x2 = 0.4977 | -1.31 ± 0.0526
333.13 K, x2 = 0.508 | -1.32 ± 0.055
333.13 K, x2 = 0.7491 | -1.23 ± 0.0502
333.13 K, x2 = 0.7512 | -1.22 ± 0.0502
348.12 K, x2 = 0.2452 | -0.779 ± 0.0311
348.12 K, x2 = 0.2477 | -0.796 ± 0.0335
348.12 K, x2 = 0.4992 | -1.29 ± 0.0526
348.12 K, x2 = 0.4996 | -1.29 ± 0.0526
348.12 K, x2 = 0.7481 | -1.19 ± 0.0478
348.12 K, x2 = 0.7485 | -1.18 ± 0.0478

CCn1cc[n+](C)c1.COS(=O)(=O)[O-] [1-ethyl-3-methylimidazolium methylsulfate]
Conditions | mass density, [2] [kg/m3] | molar heat capacity at constant pressure, [1] [J/K/mol]
283.15 K | – | 324 ± 26
293.15 K | 1291.15 ± 1.5 | 330 ± 27
298.15 K | 1287.75 ± 1.5 | –
303.15 K | 1284.37 ± 1.5 | 332 ± 27
313.15 K | 1277.61 ± 1.5 | 337 ± 27
323.15 K | 1270.87 ± 1.4 | 343 ± 28
333.15 K | 1264.22 ± 1.4 | 347 ± 28
343.15 K | 1257.72 ± 1.4 | 354 ± 29

CCn1cc[n+](C)c1.N#C[S-] [1-ethyl-3-methylimidazolium thiocyanate]
Conditions | mass density, [2] [kg/m3] | molar heat capacity at constant pressure, [1] [J/K/mol]
283.15 K | – | 285 ± 23
293.15 K | 1119.02 ± 0.88 | 287 ± 23
298.15 K | 1115.96 ± 0.86 | –
303.15 K | 1112.91 ± 0.85 | 288 ± 23
313.15 K | 1106.85 ± 0.83 | 290 ± 24
323.15 K | 1100.85 ± 0.81 | 293 ± 24
333.15 K | 1094.91 ± 0.79 | 296 ± 24
343.15 K | 1089.06 ± 0.77 | 300 ± 24

CCCC[P+](CC)(CCCC)CCCC.CCOP(=O)([O-])OCC [tributylethylphosphonium diethylphosphate] + O
[3]
Conditions | excess molar enthalpy [kcal/mol]
313.11 K, x2 = 0.2619 | -0.315 ± 0.0129
313.11 K, x2 = 0.2622 | -0.318 ± 0.0129
313.11 K, x2 = 0.5134 | -0.619 ± 0.0239
313.11 K, x2 = 0.5174 | -0.624 ± 0.0263
313.11 K, x2 = 0.762 | -0.696 ± 0.0287
313.11 K, x2 = 0.7628 | -0.696 ± 0.0287
333.11 K, x2 = 0.2606 | -0.284 ± 0.0115
333.11 K, x2 = 0.2633 | -0.289 ± 0.0117
333.11 K, x2 = 0.5116 | -0.552 ± 0.0225
333.11 K, x2 = 0.5118 | -0.554 ± 0.0225
333.11 K, x2 = 0.7594 | -0.619 ± 0.0239
333.11 K, x2 = 0.7601 | -0.621 ± 0.0263
348.11 K, x2 = 0.2623 | -0.27 ± 0.011
348.11 K, x2 = 0.2642 | -0.272 ± 0.011
348.11 K, x2 = 0.5185 | -0.511 ± 0.0208
348.11 K, x2 = 0.5213 | -0.514 ± 0.0208
348.11 K, x2 = 0.7613 | -0.554 ± 0.0225
348.11 K, x2 = 0.7635 | -0.554 ± 0.0225

CCOP(=O)([O-])OCC.CCn1cc[n+](C)c1 [1-ethyl-3-methylimidazolium diethyl phosphate]
Conditions | mass density, [2] [kg/m3] | molar heat capacity at constant pressure, [1] [J/K/mol]
283.15 K | – | 517 ± 42
293.15 K | 1148.92 ± 0.98 | 528 ± 43
298.15 K | 1145.47 ± 0.97 | –
303.15 K | 1142.03 ± 0.96 | 533 ± 43
313.15 K | 1135.19 ± 0.94 | 540 ± 44
323.15 K | 1128.57 ± 0.91 | 545 ± 44
333.15 K | 1121.94 ± 0.89 | 547 ± 44
343.15 K | 1115.36 ± 0.86 | 557 ± 45

C[n+]1ccn(CCO)c1.O=C([O-])C(F)(F)F
Conditions | mass density, [2] [kg/m3] | molar heat capacity at constant pressure, [1] [J/K/mol]
283.15 K | – | 362 ± 29
293.15 K | 1370.39 ± 1.8 | 367 ± 30
298.15 K | 1366.36 ± 1.8 | –
303.15 K | 1362.51 ± 1.8 | 371 ± 30
313.15 K | 1354.8 ± 1.7 | 376 ± 31
323.15 K | 1346.98 ± 1.7 | 381 ± 31
333.15 K | 1339.46 ± 1.7 | 387 ± 31
343.15 K | 1331.98 ± 1.7 | 394 ± 32

CCn1cc[n+](C)c1.CS(=O)(=O)[O-] [1-ethyl-3-methylimidazolium methanesulfonate]
Conditions | mass density, [2] [kg/m3] | molar heat capacity at constant pressure, [1] [J/K/mol]
283.15 K | – | 327 ± 27
293.15 K | 1247.31 ± 1.3 | 327 ± 27
298.15 K | 1243.83 ± 1.3 | –
303.15 K | 1240.45 ± 1.3 | 330 ± 27
313.15 K | 1233.48 ± 1.3 | 334 ± 27
323.15 K | 1227.03 ± 1.3 | 339 ± 28
333.15 K | 1220.33 ± 1.2 | 344 ± 28
343.15 K | 1213.79 ± 1.2 | 350 ± 28

CCCCCCn1cc[n+](C)c1.O=S(=O)([O-])C(F)(F)F [1-hexyl-3-methylimidazolium trifluoromethanesulfonate] + O
[3]
Conditions | excess molar enthalpy
313.12 K, x2 = 0.3964 | 0.325 ± 0.0131 kcal/mol
313.12 K, x2 = 0.3978 | 0.325 ± 0.0131 kcal/mol
313.12 K, x2 = 0.6294 | 0.387 ± 0.0158 kcal/mol
313.12 K, x2 = 0.6334 | 0.387 ± 0.0158 kcal/mol
313.12 K, x2 = 0.8633 | 0.174 kcal/mol and 0.172 kcal/mol
333.12 K, x2 = 0.3946 | 0.354 ± 0.0143 kcal/mol
333.12 K, x2 = 0.3993 | 0.359 ± 0.0146 kcal/mol
333.12 K, x2 = 0.6304 | 0.449 ± 0.0182 kcal/mol
333.12 K, x2 = 0.8633 | 0.239 ± 0.0098 kcal/mol
348.13 K, x2 = 0.3956 | 0.378 ± 0.0153 kcal/mol
348.13 K, x2 = 0.3977 | 0.382 ± 0.0155 kcal/mol
348.13 K, x2 = 0.6302 | 0.504 ± 0.0206 kcal/mol
348.13 K, x2 = 0.635 | 0.504 ± 0.0206 kcal/mol
348.13 K, x2 = 0.8633 | 0.289 ± 0.0117 kcal/mol

CCn1cc[n+](C)c1.O=S(=O)([O-])O [1-ethyl-3-methylimidazolium hydrogen sulfate]
Conditions | mass density, [2] [kg/m3] | molar heat capacity at constant pressure, [1] [J/K/mol]
283.15 K | – | 290 ± 24
293.15 K | 1369.28 ± 2.9 | 294 ± 24
298.15 K | 1365.79 ± 2.9 | –
303.15 K | 1362.63 ± 2.9 | 297 ± 24
313.15 K | 1356.27 ± 2.9 | 302 ± 25
323.15 K | 1350.14 ± 2.8 | 306 ± 25
333.15 K | 1344.38 ± 2.8 | 313 ± 25
343.15 K | 1338.46 ± 2.8 | 324 ± 26

CCn1cc[n+](C)c1.N#C[S-] [1-ethyl-3-methylimidazolium thiocyanate] + O
[3]
Conditions | excess molar enthalpy [kcal/mol]
313.14 K, x2 = 0.1503 | -0.059 ± 0.00239
313.14 K, x2 = 0.2483 | -0.0865 ± 0.00359
313.14 K, x2 = 0.2501 | -0.0868 ± 0.00359
313.14 K, x2 = 0.498 | -0.101 ± 0.00406
313.14 K, x2 = 0.4996 | -0.101 ± 0.00406
313.14 K, x2 = 0.7488 | -0.0261 ± 0.0012
313.14 K, x2 = 0.7493 | -0.0258 ± 0.0012
313.14 K, x2 = 0.8994 | 0.0433 ± 0.00191
313.14 K, x2 = 0.8996 | 0.043 ± 0.00167
333.14 K, x2 = 0.1477 | -0.0614 ± 0.00263
333.14 K, x2 = 0.1479 | -0.0609 ± 0.00263
333.14 K, x2 = 0.25 | -0.0887 ± 0.00359
333.14 K, x2 = 0.2506 | -0.0889 ± 0.00359
333.14 K, x2 = 0.5014 | -0.0939 ± 0.00382
333.14 K, x2 = 0.5016 | -0.0942 ± 0.00382
333.14 K, x2 = 0.6521 | -0.0483 ± 0.00191
333.14 K, x2 = 0.6524 | -0.0483 ± 0.00191
333.14 K, x2 = 0.8965 | 0.0619 ± 0.00263
333.14 K, x2 = 0.898 | 0.0621 ± 0.00263
348.13 K, x2 = 0.1467 | -0.0629 ± 0.00263
348.13 K, x2 = 0.1516 | -0.0652 ± 0.00263
348.13 K, x2 = 0.2472 | -0.0884 ± 0.00359
348.13 K, x2 = 0.251 | -0.0877 ± 0.00359
348.13 K, x2 = 0.499 | -0.087 ± 0.00359
348.13 K, x2 = 0.4992 | -0.0868 ± 0.00359
348.13 K, x2 = 0.6015 | -0.0552 ± 0.00239
348.13 K, x2 = 0.6029 | -0.0545 ± 0.00215
348.13 K, x2 = 0.8992 | 0.082 ± 0.00335
348.13 K, x2 = 0.8993 | 0.082 ± 0.00335
